{"source": "patent US10537535B2", "about": "“Histone deacetylase inhibitors” (The Regents of the University of California, priority 2015, dated 2020)", "key": {"[1]": {"test_system": "gene expression in the antenna of Drosophila melanogaster", "test": "RNA-seq transcriptome analysis of Drosophila antennae after exposure or feeding", "format": "in vivo", "source_text": "In order to examine the physiological effects of long-term exposure to an odorant, flies were maintained in vials with circulating volatiles from headspace of a low concentration (1% in paraffin oil) of the odorant diacetyl, which acts on a number of different receptor pathways in Drosophila. In a similar manner to previous odor-exposure studies, flies were exposed to diacetyl for 5 days and performed an RNA-seq analysis of the antennae, which are known odor-detecting organs. The transcriptome was compared with a control group of age-matched flies that were exposed to the headspace of the solvent paraffin oil (PO, FIG. 3A).\nFlies were exposed to diacetyl (2,3-Butanedione, B85307, Sigma-Aldrich, St. Louis, Mo.) by placing them in vials in a cylindrical closed container (112 mm diameter×151 mm height) along with an odor-containing glass vial. The odorant was dissolved in 10 mL paraffin oil at 1% dilution. For a given exposure protocol, two groups of flies were prepared: those exposed to 1% diacetyl headspace and those exposed to paraffin oil headspace alone (control flies). Adult male flies aged 1 d were transferred to fly vials containing fresh medium, and put into the container with the odor vial. At the end of the fifth day of exposure, flies were collected, and their antennae were dissected for RNA extraction. All treatments and experiments were performed at room temperature. For the recovery experiment, flies were transferred again to the container containing a glass vial of paraffin oil after 5 days of diacetyl exposure. At the end of the fifth day of recovery, flies were collected, and their antennae were dissected for RNA extraction.\nSodium butyrate (B5887, Sigma-Aldrich) or valproic acid (P4543, Sigma-Aldrich) were dissolved in normal fly food medium at the final concentration of 10 mM. Three groups of flies were prepared: those treated with one of the HDAC inhibitors and those without HDAC inhibitor treatment (control flies). Adult flies aged 1 d were transferred to fly vials containing medium with or without a HDAC inhibitor. At the end of the fifth day of treatment, flies were collected, and their antennae were dissected for RNA extraction. All treatments and experiments were performed at room temperature.\nThe second and third antennal segments from 40-60 male flies after treatment were carefully hand-dissected from the head, collected in 1.5 ml microfuge tubes kept cold in liquid nitrogen. Antennae were mechanically crushed with disposable RNAse-free plastic pestles, and total RNA was isolated using a Trizol-based protocol. cDNA libraries were prepared from total RNA (300-1000 ng/sample) using the Illumina TruSeq RNA Library Preparation Kit (Illumina Catalog #RS-122-2001). Samples were submitted to the UCR IIGB sequencing core for high-throughput sequencing using the Illumina HiSeq2500 platform. Raw reads were aligned to the Drosophila melanogaster reference genome (dmel-all-chromosome-r5.48.fasta) with Tophat2, and a count table of reads overlapping with exonic regions of genes was generated by the UCR bioinformatics core. The numbers of biological replicates are: 2, day 5 paraffin oil; 1, day 5 diacetyl; 2, day 5 mock; 2, day 5 sodium butyrate; 2, day 5 valproic acid; 2, day 10 paraffin oil recovery; 2, day 10 diacetyl recovery.\nThe read count table for all the genes were then imported into R and a statistical analysis of differential gene expression using the DESeq package (1.22.0) was performed. […] The gene list analysis was performed using the GO Term Mapper (http://go.princeton.edu/) with Generic GO slim datasets, and the Statistical overrepresentation test was performed using the PANTHER classification (http://www.pantherdb.org/) system with GO complete datasets.\nThis example investigates the overlap among genes modulated by diacetyl as compared to sodium butyrate and valproic acid, which are known HDAC inhibitors. […]"}, "pGMR-HTTQ120 flies": {"test_system": "pGMR-HTTQ120 flies", "test": "Huntington's model Drosophila (pGMR-HTTQ120), rhabdomere count by pseudopupil analysis", "format": "in vivo", "source_text": "To investigate the effect of diacetyl on neurodegeneration, Huntington model Drosophila flies (GMR-HTTQ120; expressing human huntington HTTQ120 protein from a GMR promoter) were exposed to odor 1 (diacetyl) at 1% concentration from filter paper for five days as a volatile scent. Following exposure, the omatidia in the eyes of the flies were visualized. […] The number of rhabdomeres present in the omatidia were counted (wildtype flies have 7 rhabdomeres in each omatidia).\nWhen the transgenic flies expressing two copies of the human Huntington with poly-Q repeats (HTTQ120) under control of the eye-specific GMR promoter were raised at 18° C., the number of rhabdomeres in each ommatidium was similar to that of control flies (7) immediately post-eclosion (day 1, FIGS. 8A-8C). […] The mean number of rhabdomeres was reduced from 7 to ˜1 by day 10.\nFlies were exposed to diacetyl in a cylindrical container (112 mm diameter×151 mm height). Each container was tightly closed but had 2 holes, one of which connected to an air suction port, and the other to a vial containing either of 5 mL paraffin oil or 5 mL 1% diacetyl in paraffin oil. A gentle suction was applied to pull the headspace from the odor or paraffin oil vials into the cylindrical structure (FIG. 11). pGMR-HTTQ120 flies were maintained at 18° C. Adult flies aged 1 d were transferred to fly vials containing fresh medium, and put into the odor-filled container at room temperature. Paraffin oil and 1% diacetyl solution were prepared and replaced every day. At the end of the fifth day of exposure, half of the flies were collected and subjected to pseudopupil analysis. The remaining flies were transferred to fresh medium and exposed to the odors for an additional 5 days. All treatments and experiments were performed at room temperature.\nPseudopupil Analysis was performed according to a protocol described previously (Song et al., 2013). Flies were decapitated and mounted on a microscope slide by dipping in a drop of nail polish. The arrangement of rhabdomeres in the ommatidia of the compound eyes were analyzed with Axio Imager M2 (Carl Zeiss, Oberkochen, Germany) using a 63× objective, and photographed with Axiocam 506 mono (Carl Zeiss). Six hundred ommatidia from 30 eyes of 15 flies were scored for each condition."}, "[2]": {"details": "5 days, diacetyl 1% headspace, SB/VA 10 mM in food, vs control"}, "[3]": {"details": "of 125 up-regulated genes, 5 days exposure then 5 days recovery"}, "[4]": {"details": "out of 125 diacetyl-induced genes"}}}
{"smiles": "CC(=O)C(C)=O", "note": "[diacetyl, 2,3-Butanedione]", "values": [{"measurement": "number of differentially-expressed genes in antennal transcriptome", "setting": "[1]; [2]", "result": 202, "unit": "genes"}, {"measurement": "number of genes down-regulated >2-fold", "setting": "[1]; [2]", "result": 77, "unit": "genes"}, {"measurement": "number of genes up-regulated >2-fold", "setting": "[1]; [2]", "result": 125, "unit": "genes"}, {"measurement": "genes continuing to show increased mRNA abundance after odor removal", "setting": "[1]; [3]", "result": 11, "unit": "genes"}, {"measurement": "genes showing little change after recovery", "setting": "[1]; [3]", "result": 38, "unit": "genes"}, {"measurement": "transcripts showing a reduction with diacetyl recovery", "setting": "[1]; [3]", "result": 27, "unit": "genes"}, {"measurement": "diacetyl down-regulated genes overlapping with those down-regulated in either SB- or VA-treated groups", "setting": "[1]; out of 77 down-regulated genes", "result": "About 28 genes"}, {"measurement": "diacetyl-induced genes overlapping with SB-induced genes", "setting": "[1]; [4]", "result": 51, "unit": "genes"}, {"measurement": "diacetyl-induced genes overlapping with VA-induced genes", "setting": "[1]; [4]", "result": 40, "unit": "genes"}, {"measurement": "rhabdomeres left in the majority of ommatidia", "setting": "pGMR-HTTQ120 flies; 1% headspace, after 10 days, solvent controls ~1-2", "result": "2-3 rhabdomeres"}, {"measurement": "rhabdomeres retained in the majority of ommatidia", "setting": "pGMR-HTTQ120 flies; 1% headspace, day 5", "result": "6-7 rhabdomeres"}, {"measurement": "rhabdomeres in omatidia vs not exposed flies", "setting": "pGMR-HTTQ120 flies; GMR-HTTQ120 flies, 1% from filter paper, five days, FIG. 2A", "result": "greater rhabdomeres"}, {"measurement": "inhibition of rhabdomere loss", "setting": "pGMR-HTTQ120 flies; volatile headspace of 1% diacetyl in paraffin oil, after eclosion, 25° C.", "result": 50, "unit": "%"}]}
